Test results reported in patent US20120264735A1 (priority 2009, published 2012).

Target: T1, c-Met kinase (recombinant c-Met) (Homo sapiens, UniProt P08581)
T1 construct: 0.27 nM recombinant c-Met
Experiment: In vitro kinase assay I (homogeneous time-resolved fluorescence tyrosine kinase assay)
Assay type: biochemical
In short: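 Biotinylated peptide (0.5 μM) phosphorylated by 0.2 nM recombinant c-Met with 50 μM MgATP, 60 min at room temperature, pH 7.4, 5% DMSO. EDTA stop; HTRF read with Eu-anti-phosphotyrosine antibody and streptavidin-APC. IC50 from 4-parameter logistic fit.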

T1 sequence (P08581 25-1390): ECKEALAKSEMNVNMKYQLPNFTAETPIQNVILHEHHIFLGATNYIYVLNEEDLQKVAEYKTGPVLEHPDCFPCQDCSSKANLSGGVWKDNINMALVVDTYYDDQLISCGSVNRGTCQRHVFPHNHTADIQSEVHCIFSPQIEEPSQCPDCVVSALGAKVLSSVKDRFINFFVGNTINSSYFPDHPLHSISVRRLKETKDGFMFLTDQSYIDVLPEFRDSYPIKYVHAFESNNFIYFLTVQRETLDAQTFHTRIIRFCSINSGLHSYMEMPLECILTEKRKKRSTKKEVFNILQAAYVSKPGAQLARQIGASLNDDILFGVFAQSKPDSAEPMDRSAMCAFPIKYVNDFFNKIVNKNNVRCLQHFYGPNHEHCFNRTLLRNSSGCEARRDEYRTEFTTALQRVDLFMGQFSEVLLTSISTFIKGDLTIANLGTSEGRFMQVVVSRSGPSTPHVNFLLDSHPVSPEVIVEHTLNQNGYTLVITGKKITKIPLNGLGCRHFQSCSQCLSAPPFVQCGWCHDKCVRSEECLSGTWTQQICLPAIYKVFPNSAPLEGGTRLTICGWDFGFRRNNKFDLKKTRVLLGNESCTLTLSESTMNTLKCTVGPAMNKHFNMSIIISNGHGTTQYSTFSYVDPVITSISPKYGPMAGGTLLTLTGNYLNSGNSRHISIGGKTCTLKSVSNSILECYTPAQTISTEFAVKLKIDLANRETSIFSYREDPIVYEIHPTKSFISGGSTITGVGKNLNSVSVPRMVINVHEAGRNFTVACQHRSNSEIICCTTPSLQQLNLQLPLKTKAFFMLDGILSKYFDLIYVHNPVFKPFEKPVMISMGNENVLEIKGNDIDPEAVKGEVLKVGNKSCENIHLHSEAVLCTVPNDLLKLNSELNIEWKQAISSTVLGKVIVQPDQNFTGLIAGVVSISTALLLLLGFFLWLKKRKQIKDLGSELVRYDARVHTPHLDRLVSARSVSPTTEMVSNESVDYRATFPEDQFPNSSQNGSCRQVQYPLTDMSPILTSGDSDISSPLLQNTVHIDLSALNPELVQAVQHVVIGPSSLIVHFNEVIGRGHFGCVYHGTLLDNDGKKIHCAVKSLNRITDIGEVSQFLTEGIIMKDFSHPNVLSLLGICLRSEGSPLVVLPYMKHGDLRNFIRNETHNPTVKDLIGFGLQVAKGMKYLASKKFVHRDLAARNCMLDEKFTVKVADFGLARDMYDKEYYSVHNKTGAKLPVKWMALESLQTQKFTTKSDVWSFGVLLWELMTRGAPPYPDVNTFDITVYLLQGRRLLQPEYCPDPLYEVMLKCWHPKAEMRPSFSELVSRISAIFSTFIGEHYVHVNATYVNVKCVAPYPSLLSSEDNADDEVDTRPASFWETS

IC50	SMILES
< 100 nM	COCCNc1cnc(-c2cccc(Cc3nn(-c4cnn(C)c4)ccc3=O)c2)nc1 [Example 453, 3-(3-{5-[(2-methoxyethyl)amino]pyrimidin-2-yl}benzyl)-1-(1-methyl-1H-pyrazol-4-yl)pyridazin-4(1H)-one]
< 100 nM	CCOCCNc1cnc(-c2cccc(Cc3nn(-c4cnn(C)c4)ccc3=O)c2)nc1 [Example 454, 3-(3-{5-[(2-ethoxyethyl)amino]pyrimidin-2-yl}benzyl)-1-(1-methyl-1H-pyrazol-4-yl)pyridazin-4(1H)-one]
< 100 nM	CCCN(C)c1cnc(-c2cccc(Cc3nn(-c4cnn(C)c4)ccc3=O)c2)nc1 [Example 456, 3-(3-{5-[Methyl(propyl)amino]pyrimidin-2-yl}benzyl)-1-(1-methyl-1H-pyrazol-4-yl)pyridazin-4(1H)-one]
< 100 nM	COCCC(=O)Nc1cnc(-c2cccc(Cc3nn(-c4cnn(C)c4)ccc3=O)c2)nc1 [Example 458, 3-Methoxy-N-[2-(3-{[1-(1-methyl-1H-pyrazol-4-yl)-4-oxo-1,4-dihydropyridazin-3-yl]methyl}phenyl)pyrimidin-5-yl]propanamide]
< 100 nM	Cn1cc(-n2ccc(=O)c(Cc3cccc(-c4ncc(NC(=O)CC5CCOCC5)cn4)c3)n2)cn1 [Example 459, N-[2-(3-{[1-(1-methyl-1H-pyrazol-4-yl)-4-oxo-1,4-dihydro-pyridazin-3-yl]methyl}phenyl)pyrimidin-5-yl]-2-(tetrahydro 2H-pyran-4-yl)acetamide]
< 100 nM	CCC(=O)Nc1cnc(-c2cccc(Cc3nn(-c4cnn(C)c4)ccc3=O)c2)nc1 [Example 460, N-[2-(3-{[1-(1-methyl-1H-pyrazol-4-yl)-4-oxo-1,4-dihydro-pyridazin-3-yl]methyl}phenyl)pyrimidin-5-yl}propanamide]
< 100 nM	COCC(=O)Nc1cnc(-c2cccc(Cc3nn(-c4cnn(C)c4)ccc3=O)c2)nc1 [Example 461, 2-methoxy-N-[2-(3-{[1-(1-methyl-1H-pyrazol-4-yl)-4-oxo-1,4-dihydro-pyridazin-3-yl]methyl}phenyl)pyrimidin-5-yl]acetamide]
< 100 nM	Cn1cc(-n2ccc(=O)c(Cc3cccc(-c4ncc(NC(=O)CN5CCCC5=O)cn4)c3)n2)cn1 [Example 463, N-[2-(3-{[1-(1-methyl-1H-pyrazol-4-yl)-4-oxo-1,4-dihydro-pyridazin-3-yl]methyl}phenyl)pyrimidin-5-yl]-2-(2-oxopyrrolidin-1-yl)acetamide]
< 100 nM	Cn1cc(-n2ccc(=O)c(Cc3cccc(-c4ncc(Br)cn4)c3)n2)cn1 [Example 465, 3-[3-(5-Bromopyrimidin-2-yl)benzyl]-1-(1-methyl-1H-pyrazol-4-yl)pyridazin-4(1H)-one]
< 100 nM	CN1CCN(c2cnc(-c3cccc(Cc4nn(-c5cnn(C)c5)ccc4=O)c3)nc2)CC1 [Example 467, 3-{3-[5-(4-methyl-piperazin-1-yl)pyrimidin-2-yl]benzyl}-1-(1-methyl-1H-pyrazol-4-yl)pyridazin-4(1H)-one]
< 100 nM	Cn1cc(-n2ccc(=O)c(Cc3cccc(-c4ncc(N5CCCC5)cn4)c3)n2)cn1 [Example 470, 1-(1-methyl-1H-pyrazol-4-yl)-3-[3-(5-pyrrolidin-1-ylpyrimidin-2-yl)benzyl]pyridazin-4(1H)-one]
< 100 nM	Cn1cc(-n2ccc(=O)c(Cc3cccc(-c4ncc(N5CCN(C(=O)OC(C)(C)C)CC5)cn4)c3)n2)cn1 [Example 471, tert-butyl 4-[2-(3-{[1-(1-methyl-1H-pyrazol-4-yl)-4-oxo-1,4-dihydro-pyridazin-3-yl]methyl}phenyl)pyrimidin-5-yl]piperazine-1-carboxylate]
< 100 nM	Cn1cc(-n2ccc(=O)c(Cc3cccc(-c4ncc(N5CCOCC5)cn4)c3)n2)cn1 [Example 472, 1-(1-methyl-1H-pyrazol-4-yl)-3-[3-(5-morpholin-4-ylpyrimidin-2-yl)benzyl]pyridazin-4(1H)-one]
< 100 nM	Cn1cc(-n2ccc(=O)c(Cc3cccc(-c4ncc(-n5cnnc5)cn4)c3)n2)cn1 [Example 473, 1-(1-Methyl-1H-pyrazol-4-yl)-3-{3-[5-(4H-1,2,4-triazol-4-yl)pyrimidin-2-yl]benzyl}pyridazin-4(1H)-one]
< 100 nM	Cn1cc(-n2ccc(=O)c(Cc3cccc(-c4ncc(C(=O)NCCN5CCOCC5)cn4)c3)n2)cn1 [Example 477, 2-(3-{[1-(1-methyl-1H-pyrazol-4-yl)-4-oxo-1,4-dihydro-pyridazin-3-yl]methyl}phenyl)-N-(2-morpholin-4-ylethyl)pyrimidine-5-carboxamide]
< 100 nM	CN1CCN(CCCNC(=O)c2cnc(-c3cccc(Cc4nn(-c5cnn(C)c5)ccc4=O)c3)nc2)CC1 [Example 479, N-[3-(4-methyl-piperazin-1-yl)propyl]-2-(3-{[1-(1-methyl-1H-pyrazol-4-yl)-4-oxo-1,4-dihydro-pyridazin-3-yl]methyl}phenyl)pyrimidine-5-carboxamide]
< 100 nM	CC(C)CNC(=O)c1cnc(-c2cccc(Cc3nn(-c4cnn(C)c4)ccc3=O)c2)nc1 [Example 480, N-(2-methylpropyl)-2-(3-{[1-(1-methyl-1H-pyrazol-4-yl)-4-oxo-1,4-dihydro-pyridazin-3-yl]methyl}phenyl)pyrimidine-5-carboxamide]

IC50	SMILES
< 100 nM	Cn1cc(-n2ccc(=O)c(Cc3cccc(-c4ncc(C(=O)NCC(F)(F)F)cn4)c3)n2)cn1 [Example 481, 2-(3-{[1-(1-methyl-1H-pyrazol-4-yl)-4-oxo-1,4-dihydro-pyridazin-3-yl]methyl}phenyl)-N-(2,2,2-trifluoroethyl)pyrimidine-5-carboxamide]
< 100 nM	Cn1cc(-n2ccc(=O)c(Cc3cccc(-c4ncc(C(=O)NCCCN5CCOCC5)cn4)c3)n2)cn1 [Example 482, 2-(3-{[1-(1-methyl-1H-pyrazol-4-yl)-4-oxo-1,4-dihydro-pyridazin-3-yl]methyl}phenyl)-N-(3-morpholin-4-ylpropyl)pyrimidine-5-carboxamide]
< 100 nM	CCNC(=O)c1cnc(-c2cccc(Cc3nn(-c4cnn(C)c4)ccc3=O)c2)nc1 [Example 484, N-ethyl-2-(3-{[1-(1-methyl-1H-pyrazol-4-yl)-4-oxo-1,4-dihydro-pyridazin-3-yl]methyl}phenyl)pyrimidine-5-carboxamide]
< 100 nM	CNC(=O)c1cnc(-c2cccc(Cc3nn(-c4cnn(C)c4)ccc3=O)c2)nc1 [Example 485, N-methyl-2-(3-{[1-(1-methyl-1H-pyrazol-4-yl)-4-oxo-1,4-dihydro-pyridazin-3-yl]methyl}phenyl)pyrimidine-5-carboxamide]
1000 to 3000 nM	CCNC(=O)Nc1cccc(Cc2nn(-c3ccccc3)ccc2=O)c1 [Example 486, 1-Ethyl-3-{3-[(4-oxo-1-phenyl-1,4-dihydropyridazin-3-yl)methyl]phenyl}urea]
< 100 nM	CNC(=O)Nc1cccc(Cc2nn(-c3cnn(C)c3)ccc2=O)c1 [Example 487, 1-Methyl-3-(3-{[1-(1-methyl-1H-pyrazol-4-yl)-4-oxo-1,4-dihydropyridazin-3-yl]methyl}phenyl)urea]
< 100 nM	CCNC(=O)Nc1cccc(Cc2nn(-c3cnn(C)c3)ccc2=O)c1 [Example 488, 1-ethyl-3-(3-{[1-(1-methyl-1H-pyrazol-4-yl)-4-oxo-1,4-dihydropyridazin-3-yl]methyl}phenyl)urea]
< 100 nM	CCCNC(=O)Nc1cccc(Cc2nn(-c3cnn(C)c3)ccc2=O)c1 [Example 489, 1-(3-{[1-(1-methyl-1H-pyrazol-4-yl)-4-oxo-1,4-dihydropyridazin-3-yl]methyl}phenyl)-3-propylurea]
< 100 nM	Cn1cc(-n2ccc(=O)c(Cc3cccc(NC(=O)NCc4ccccc4)c3)n2)cn1 [Example 490, 1-benzyl-3-(3-{[1-(1-methyl-1H-pyrazol-4-yl)-4-oxo-1,4-dihydropyridazin-3-yl]methyl}phenyl)urea]
< 100 nM	CC(C)CNC(=O)Nc1cccc(Cc2nn(-c3cnn(C)c3)ccc2=O)c1 [Example 491, 1-(2-methylpropyl)-3-(3-{[1-(1-methyl-1H-pyrazol-4-yl)-4-oxo-1,4-dihydropyridazin-3-yl]methyl}phenyl)urea]
100 to 1000 nM	Cn1cc(-n2ccc(=O)c(Cc3cccc(NC(=O)NC4CC4)c3)n2)cn1 [Example 492, 1-cyclopropyl-3-(3-{[1-(1-methyl-1H-pyrazol-4-yl)-4-oxo-1,4-dihydropyridazin-3-yl]methyl}phenyl)urea]
< 100 nM	COCCNC(=O)Nc1cccc(Cc2nn(-c3cnn(C)c3)ccc2=O)c1 [Example 493, 1-(2-methoxyethyl)-3-(3-{[1-(1-methyl-1H-pyrazol-4-yl)-4-oxo-1,4-dihydropyridazin-3-yl]methyl}phenyl)urea]
< 100 nM	CCCCNC(=O)Nc1cccc(Cc2nn(-c3cnn(C)c3)ccc2=O)c1 [Example 494, 1-butyl-3-(3-{[1-(1-methyl-1H-pyrazol-4-yl)-4-oxo-1,4-dihydropyridazin-3-yl]methyl}phenyl)urea]
< 100 nM	COc1ccc(CNC(=O)Nc2cccc(Cc3nn(-c4cnn(C)c4)ccc3=O)c2)cc1 [Example 495, 1-(4-methoxybenzyl)-3-(3-{[1-(1-methyl-1H-pyrazol-4-yl)-4-oxo-1,4-dihydropyridazin-3-yl]methyl}phenyl)urea]
< 100 nM	O=C(NCCN1CCOCC1)Nc1cccc(Cc2nn(-c3ccc(F)c(F)c3)ccc2=O)c1 [Example 496, 1-(3-{[1-(3,4-difluorophenyl)-4-oxo-1,4-dihydropyridazin-3-yl]methyl}phenyl)-3-(2-morpholin-4-ylethyl)urea]
< 100 nM	COC(=O)Nc1cccc(Cc2nn(-c3cnn(C)c3)ccc2=O)c1 [Example 497, Methyl(3-{[1-(1-methyl-1H-pyrazol-4-yl)-4-oxo-1,4-dihydropyridazin-3-yl]methyl}phenyl)carbamate]
< 100 nM	Cn1cc(-n2ccc(=O)c(Cc3cccc(NC(=O)OCc4ccccc4)c3)n2)cn1 [Example 498, benzyl(3-{[1-(1-methyl-1H-pyrazol-4-yl)-4-oxo-1,4-dihydropyridazin-3-yl]methyl}phenyl)carbamate]
